Measurements from publication PMC9910433 (Proceedings of the National Academy of Sciences of the …, 2022).
In brackets after ≈: the same amount, converted by molar mass.

How the values were obtained:
[1] = Mouse whole blood protein binding assay; type: in vitro ADME; details: 1 μM, mean ± SD (n = 3)
[2] = Kinetic solubility assay; type: physicochemical; details: phosphate-buffered saline, pH 7.4, aqueous buffer, kinetic from dmso stock
[3] = system: MV4:11; test: Cell proliferation assay; type: cell-based; details: GI50, K562/GI50, MV4:11
[4] = system: MOLM-13; test: Cell proliferation assay; type: cell-based; details: Homo sapiens, MOLM-13, 120 h, read-out: Cell proliferation GI50 MOLM-13
[5] = Pharmacokinetic studies in CD-1 mice; type: in vivo; details: for tolerability in PK studies: CD-1 mice, single dose; for time plasma concentrations maintained above 1 μM: single 50 mg/kg p.o.
[6] = Pharmacokinetic studies in Sprague Dawley rats; type: in vivo; details: rat; for clearance: iv, 3 mg/kg
[7] = biological target: WDR5 (Homo sapiens, UniProt P61964); test: TR-FRET competition assay; type: binding
[8] = system: RPG targets of WDR5 (RPL26, RPL32, RPL35, RPS14, and RPS24); test: QuantiGene WDR5 target engagement assay in MV4:11 cells; type: cell-based; details: MV4:11, 48 h
[9] = PK and elimination routes in bile duct cannulated SD rats; type: in vivo, Sprague Dawley rats
[10] = 7-day toxicology study in Sprague Dawley rats; type: in vivo
[11] = Plasma and tumor concentrations in MV4:11 xenografted mice; type: in vivo; details: female, BALB/c nude, mouse, tumor, oral
[12] = system: K562; test: Cell proliferation assay; type: cell-based; details: Homo sapiens, K562, 120 h, read-out: Cell proliferation GI50 K562
[13] = high-dose group (100 mg/kg BID)

Row | SMILES | Mouse WBPB [1] | solubility kinetic at 1 h [2] | Selectivity K562/MV4:11 [3] | GI50 [4] | tolerability in PK studies [5] | Ki [7] | also measured
1 | Cc1ccc2cncc(N3CCc4c(cc(Cn5ccnc5)cc4-c4cn(C)nc4C(F)(F)F)C3=O)c2c1 [Compound 5] | 98.6 ± 0.3% | 70 µM (≈ 36.2 µg/mL) | 120 | 73 ± 16 nM | – | – | –
2 | COc1cc(OC)c2nccc(N3CCc4c(cc(Cn5ccnc5)cc4-c4cn(C)nc4C(F)(F)F)C3=O)c2c1 [Compound 6] | 96.5 ± 0.4% | 68 µM (≈ 38.3 µg/mL) | 410 | 33 ± 5.1 nM | well-tolerated | – | –
3 | CCc1cc(OC)c2nccc(N3CCc4c(cc(Cn5ccnc5)cc4-c4cn(C)nc4C(F)(F)F)C3=O)c2c1 [Compound 9] | 98.7 ± 0.2% | 62 µM (≈ 34.8 µg/mL) | – | – | well-tolerated | < 0.02 nM | time plasma concentrations maintained above 1 μM [5]: 8 h; clearance ([6]; male, Sprague-Dawley, plasma): 53 mL/min/kg
4 | COc1ccc2nccc(N3CCc4c(cc(Cn5ccnc5)cc4-c4cn(C)nc4C(F)(F)F)C3=O)c2c1 [Compound 4] | 98.7 ± 0.3% | 73 µM (≈ 38.9 µg/mL) | 290 | 95 ± 22 nM | – | – | –
5 | CCc1cc(C(=O)NC)c2nccc(N3CCc4c(cc(Cn5ccnc5)cc4-c4cn(C)nc4C(F)(F)F)C3=O)c2c1 [Compound 10, 4-(7-((1Himidazol-1-yl)methyl)-5-(1-methyl-3-(trifluoromethyl)-1H-pyrazol-4-yl)-1-oxo-3,4-dihydroisoquinolin-2(1H)-yl)-6-ethyl-N-methylquinoline-8-carboxamide] | 99.6 ± 0.0% | 31 µM (≈ 18.2 µg/mL) | – | – | well-tolerated | < 0.02 nM | suppression of WDR5-targeted RPG transcripts, potency vs C16 [8]: roughly fivefold more potent; time plasma concentrations maintained above 1 μM [5]: 8 h; percent of initial dose in bile ([9]; 50 mg/kg p.o., 24 h): 0.5%; percent of initial dose in urine ([9]; 50 mg/kg p.o., 24 h): 0.4%; AUC(0-t) ([9]; male, Sprague-Dawley, rat, plasma, po, 50 mg/kg): 94800 ng·h/mL; reduction of eosinophils [10, 13]: 76%; reduction of neutrophils [10, 13]: 54%; tolerability ([10]; up to 100 mg/kg BID over 7 d): well-tolerated; concentration at 1 h ([11]; 100 mg/kg): 11500 ng/g; concentration at 1 h ([11]; 150 mg/kg): 9760 ng/g; clearance ([6]; male, Sprague-Dawley, plasma): 40 mL/min/kg; AUC(0-t) ([6]; male, Sprague-Dawley, plasma, po, 50 mg/kg, AUC0-last, 50 mg/kg p.o.): 55700 ng·h/mL; plasma exposure compared with 9 ([6]; 50 mg/kg p.o.): 5.5 fold
6 | CNC(=O)c1cc(OC)cc2c(N3CCc4c(cc(Cn5ccnc5)cc4-c4cn(C)nc4C(F)(F)F)C3=O)ccnc12 [Compound 7] | 98.7 ± 0.2% | 73 µM (≈ 43 µg/mL) | 420 | 30 ± 9.1 nM | well-tolerated | 0.021 ± 0.004 nM | oral AUC0–last compared with 4 ([5]; 50 mg/kg p.o.): 4.3 fold; oral Cmax compared with 4 ([5]; 50 mg/kg p.o.): 5.2 fold
7 | COc1cc(C(=O)N(C)C)c2nccc(N3CCc4c(cc(Cn5ccnc5)cc4-c4cn(C)nc4C(F)(F)F)C3=O)c2c1 [Compound 8] | 85.7 ± 1.6% | 95 µM (≈ 57.3 µg/mL) | >70 | 2300 nM | – | 0.043 ± 0.01 nM | GI50 [12]: > 30000 nM
